Several values for one entry are separate records, joined by “and”; a condition that tells them apart may be missing. Equal values may be shown once. Read-outs that look alike come from different tables or passages of the source.
What was measured:
[1] = target: T1, CqsS (Vibrio cholerae serotype O1, UniProt Q9KM66); assay: cell-based; conditions: for Light production: strain WN1102; for RLU: Strain WN1102
T1 construct: endogenous in cells; host or cells: V. cholerae WN1102 (ΔcqsA ΔluxQ/pBB1), derived from C6706str2

[2] = system: QS-controlled luxCDABE operon; assay type: cell-based
[3] = system: T2, CqsS D618N; assay: CqsS D618N autophosphorylation in inverted membrane vesicles, 32P (Fig 7A); assay type: biochemical, Vibrio cholerae
T2 construct: made in house; host or cells: E. coli C43 (DE3), pET21b; used as inverted membrane vesicles

[4] = ΔcqsA strain carrying luciferase

T1 sequence (Q9KM66 whole entry, looked up): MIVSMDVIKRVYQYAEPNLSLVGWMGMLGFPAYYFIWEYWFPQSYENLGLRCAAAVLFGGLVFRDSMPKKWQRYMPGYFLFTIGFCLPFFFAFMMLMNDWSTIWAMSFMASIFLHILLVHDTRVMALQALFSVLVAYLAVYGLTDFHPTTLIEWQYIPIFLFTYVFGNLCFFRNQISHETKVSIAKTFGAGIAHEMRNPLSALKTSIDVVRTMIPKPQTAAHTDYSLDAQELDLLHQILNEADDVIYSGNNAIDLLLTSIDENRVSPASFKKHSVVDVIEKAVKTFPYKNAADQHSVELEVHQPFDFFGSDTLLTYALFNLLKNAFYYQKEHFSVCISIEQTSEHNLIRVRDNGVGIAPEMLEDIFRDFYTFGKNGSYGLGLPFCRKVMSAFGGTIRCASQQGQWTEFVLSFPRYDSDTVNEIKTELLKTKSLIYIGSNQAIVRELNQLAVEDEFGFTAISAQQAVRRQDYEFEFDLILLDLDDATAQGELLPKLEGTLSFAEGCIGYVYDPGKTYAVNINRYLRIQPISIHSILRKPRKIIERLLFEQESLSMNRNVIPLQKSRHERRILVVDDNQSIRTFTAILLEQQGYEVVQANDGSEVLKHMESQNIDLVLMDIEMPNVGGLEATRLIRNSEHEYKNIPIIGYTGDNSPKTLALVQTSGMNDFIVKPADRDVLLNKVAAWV

SMILES: CCCCCCCCCC(=O)[C@@H](O)CC [CAI-1, (S)-3-hydroxytridecan-4-one]
- Light production ([1]; Agonist 0.0119209 nM): 12889 RLU and 8888.9 RLU and 6804.1 RLU
- Light production ([1]; Agonist 0.0476837 nM): 14371 RLU and 11556 RLU and 14048 RLU
- Light production ([1]; Agonist 0.190735 nM): 19162 RLU and 15751 RLU and 14725 RLU
- Light production ([1]; Agonist 0.762939 nM): 27416 RLU and 24171 RLU and 21376 RLU
- Light production ([1]; Agonist 3.05176 nM): 42278 RLU and 41455 RLU and 42909 RLU
- Light production ([1]; Agonist 12.207 nM): 141302 RLU and 122637 RLU and 126432 RLU
- Light production ([1]; Agonist 48.8281 nM): 2056727 RLU and 1989392 RLU and 2067742 RLU
- Light production ([1]; Agonist 195.312 nM): 21777960 RLU and 20597350 RLU and 20387370 RLU
- Light production ([1]; Agonist 781.25 nM): 68306990 RLU and 63315740 RLU and 60445960 RLU
- Light production ([1]; Agonist 3125 nM): 107684000 RLU and 96526460 RLU and 89440220 RLU
- Light production ([1]; Agonist 12500 nM): 110460000 RLU and 105858400 RLU and 100769600 RLU
- Light production ([1]; Agonist 50000 nM): 108923600 RLU and 92244980 RLU and 92565550 RLU
- RLU ([1]; agonist 0.0119209 nM): 6.03E+03 RLU and 5.88E+03 RLU and 4.06E+03 RLU
- RLU ([1]; agonist 0.190735 nM): 1.26E+04 RLU and 1.57E+04 RLU and 1.42E+04 RLU
- RLU ([1]; agonist 0.762939 nM): 2.01E+04 RLU and 2.32E+04 RLU and 2.34E+04 RLU
- RLU ([1]; agonist 3.05176 nM): 2.95E+04 RLU and 3.11E+04 RLU and 2.71E+04 RLU
- RLU ([1]; agonist 12.207 nM): 3.67E+04 RLU and 5.35E+04 RLU and 5.22E+04 RLU
- RLU ([1]; agonist 48.8281 nM): 1.20E+05 RLU and 1.71E+05 RLU and 1.56E+05 RLU
- RLU ([1]; agonist 195.312 nM): 4.96E+06 RLU and 5.24E+06 RLU and 3.77E+06 RLU
- RLU ([1]; agonist 781.25 nM): 5.10E+07 RLU and 6.40E+07 RLU and 5.48E+07 RLU
- RLU ([1]; agonist 3125 nM): 1.12E+08 RLU and 1.35E+08 RLU and 1.31E+08 RLU
- RLU ([1]; agonist 12500 nM): 1.34E+08 RLU and 1.62E+08 RLU and 1.58E+08 RLU
- RLU ([1]; agonist 50000 nM): 1.28E+08 RLU and 1.53E+08 RLU and 1.57E+08 RLU
- Light production ([2]; 5nM CAI-1, OD600 0.005): 81418.9 RLU and 88175.7 RLU
- Light production ([2]; 5nM CAI-1, OD600 0.0328): 3079268 RLU and 3871951 RLU
- Light production ([2]; 5nM CAI-1, OD600 0.1753): 587564 RLU
- Light production ([2]; 5nM CAI-1, OD600 0.3442): 310866 RLU and 554910 RLU
- Light production ([2]; 5nM CAI-1, OD600 0.801): 179775 RLU and 309613 RLU
- Light production ([2]; 5nM CAI-1, OD600 1.26): 81746 RLU and 99206.4 RLU
- Light production ([2]; 5nM CAI-1, OD600 1.834): 45747000 RLU and 48964010 RLU
- Light production ([2]; 5nM CAI-1, OD600 2.816): 21306820 RLU and 22194600 RLU
- Light production ([2]; 5nM CAI-1, OD600 3.828): 7523511 RLU and 7967607 RLU
- Light production ([2]; 10nM CAI-1, OD600 0.005): 81418.9 RLU and 88175.7 RLU
- Light production ([2]; 10nM CAI-1, OD600 0.0309): 3915858 RLU and 6084143 RLU
- Light production ([2]; 10nM CAI-1, OD600 0.3229): 637968 RLU and 656550 RLU
- Light production ([2]; 10nM CAI-1, OD600 1.126): 88099.5 RLU and 91474.2 RLU
- Light production ([2]; 10nM CAI-1, OD600 1.799): 63924400 RLU and 62812670 RLU
- Light production ([2]; 10nM CAI-1, OD600 3.014): 33012610 RLU and 33842070 RLU
- Light production ([2]; 10nM CAI-1, OD600 3.657): 10363690 RLU and 11730930 RLU
- Light production ([2]; 50nM CAI-1, OD600 0.005): 88175.7 RLU and 81418.9 RLU
- Light production ([2]; 50nM CAI-1, OD600 0.17): 729000 RLU and 688000 RLU
- Light production ([2]; 50nM CAI-1, OD600 1.08): 697000 RLU
- Light production ([2]; 50nM CAI-1, OD600 1.1): 90900 RLU and 113000 RLU
- Light production ([2]; 50nM CAI-1, OD600 1.96): 526000000 RLU and 531000000 RLU
- Light production ([2]; 50nM CAI-1, OD600 2.94): 619000000 RLU and 599000000 RLU
- Light production ([2]; 50nM CAI-1, OD600 3.55): 346000000 RLU and 321000000 RLU
- Light production ([2]; 100nM CAI-1, OD600 0.005): 81418.9 RLU and 88175.7 RLU
- Light production ([2]; 100nM CAI-1, OD600 0.0305): 3670000 RLU and 6790000 RLU
- Light production ([2]; 100nM CAI-1, OD600 0.1651): 654000 RLU and 1050000 RLU
- Light production ([2]; 100nM CAI-1, OD600 0.3167): 332000 RLU and 388000 RLU
- Light production ([2]; 100nM CAI-1, OD600 0.721): 196000 RLU and 241000 RLU
- Light production ([2]; 100nM CAI-1, OD600 1.101): 2280000 RLU
- Light production ([2]; 100nM CAI-1, OD600 2.679): 3170000000 RLU
- Light production ([2]; 100nM CAI-1, OD600 3.677): 1830000000 RLU and 1870000000 RLU
- Light production ([2]; 200nM CAI-1, OD600 0.005): 81418.9 RLU and 88175.7 RLU
- Light production ([2]; 200nM CAI-1, OD600 0.0621): 2130000 RLU and 2790000 RLU
- Light production ([2]; 200nM CAI-1, OD600 0.3026): 568000 RLU and 806000 RLU
- Light production ([2]; 200nM CAI-1, OD600 0.5074): 946000 RLU and 1180000 RLU
- Light production ([2]; 200nM CAI-1, OD600 0.5715): 2260000 RLU and 2870000 RLU
- Light production ([2]; 200nM CAI-1, OD600 1.099): 27300000 RLU and 26900000 RLU
- Light production ([2]; 200nM CAI-1, OD600 1.844): 5910000000 RLU
- Light production ([2]; 200nM CAI-1, OD600 2.341): 8370000000 RLU and 9230000000 RLU
- Light production ([2]; 200nM CAI-1, OD600 3.352): 11800000000 RLU and 12600000000 RLU
- Light production ([2]; 200nM CAI-1, OD600 4.26): 7350000000 RLU and 7860000000 RLU
- Light production ([2]; 400nM CAI-1, OD600 0.005): 81418.9 RLU and 88175.7 RLU
- Light production ([2]; 400nM CAI-1, OD600 0.0614): 1510000 RLU and 1840000 RLU
- Light production ([2]; 400nM CAI-1, OD600 0.3014): 358000 RLU and 392000 RLU
- Light production ([2]; 400nM CAI-1, OD600 0.5621): 3290000 RLU and 3630000 RLU
- Light production ([2]; 400nM CAI-1, OD600 1.037): 74300000 RLU and 84000000 RLU
- Light production ([2]; 400nM CAI-1, OD600 1.532): 10100000000 RLU
- Light production ([2]; 400nM CAI-1, OD600 2): 31900000000 RLU and 31800000000 RLU
- Light production ([2]; 400nM CAI-1, OD600 3.04): 22900000000 RLU and 24900000000 RLU
- Light production ([2]; 400nM CAI-1, OD600 3.35): 22600000000 RLU and 24400000000 RLU
- CAI-1 concentration at which induction of bioluminescence occurred [2, 4]: 50 nM
- CAI-1 concentrations that failed to activate a QS response [2, 4]: below 50 nM
- CAI-1 concentrations that fully induced QS [2, 4]: above 200 nM
- % Total Phosphorylation ([3]; agonist 0.32 uM): 95.2512% and 79.8407% and 88.8244% and 85.3997% and 90.9887%
- % Total Phosphorylation ([3]; agonist 0.64 uM): 113.145% and 87.5268% and 103.834% and 64.446% and 85.0733% and 67.8245%
- % Total Phosphorylation ([3]; agonist 1.28 uM): 54.1919% and 72.6606% and 66.4662% and 63.8968% and 70.5235% and 55.5883%
- % Total Phosphorylation ([3]; agonist 6.4 uM): 11.8696% and 10.1556% and 13.3867% and 14.118% and 13.0644% and 14.5467%
- % Total Phosphorylation ([3]; agonist 8 uM): 8.344% and 11.4086% and 9.0715% and 10.6327% and 12.5012% and 11.7307%
- % Total Phosphorylation ([3]; agonist 10 uM): 12.437% and 6.165% and 12.0698% and 9.199% and 10.7397% and 9.533%
- % Total Phosphorylation ([3]; agonist 15 uM): 6.329% and 4.395% and 5.101% and 4.035% and 5.504% and 5.125%

Source: article PMC5467912, “Asymmetric regulation of quorum-sensing receptors drives autoinducer-specific gene expression programs in Vibrio cholerae” (PLoS Genetics, 2017)
